Measurements from patent US20110182982A1, “LIPOSOME TREATMENT OF VIRAL INFECTIONS” (University of Oxford, priority 2006, published 2011).

How the values were obtained:
HIV-1 primary isolates = assay: p24 secretion of HIV-1-infected PBMCs, eight primary isolates; format: cell-based
Description: Clearance of HIV-1 primary isolates from infected human cells by NB-DNJ was assessed using phytohemagglutinin (PHA)-activated peripheral blood mononuclear cells (PBMCs) as indicator cells and the determination of p24 antigen production as the end point.
PBMCs from four normal (uninfected) donors were isolated, pooled, and stimulated with PHA (5 μg/ml) for 48 h followed by PHA plus interleukin-2 (40 U/ml) for 72 h in RPMI 1640 medium containing 10% heat-inactivated fetal bovine serum (FBS), 100 U of penicillin per ml, 100 μg of streptomycin per ml, and 2 mM L-glutamine. All experiments were performed in 96-well microtiter plates. To infect cells, 100 μl of PHA-activated PBMCs (5×10^5/ml) was added to each well, after which an equal volume containing 100 50% tissue culture infective doses (TCID50) of primary isolate stock was added. After an overnight incubation, the cells were washed three times with tissue culture medium, and finally re-suspended in medium containing the appropriate liposome treatment or free NB-DNJ. On day 7, approximately 10-30% of the culture volume containing secreted HIV-1 virions was used to infect naïve PBMCs for a second round of infection and treatment (volume transferred was calculated to be the volume necessary for the untreated control of that isolate to infect naïve cells at a TCID50=100). Rounds of treatment and infection of naïve cells were continued over four weeks, and at every time point cellular supernatant containing secreted virions was isolated and used in capture ELISAs to determine p24 concentration (measure of secretion). Additionally, supernatant isolated at each time point throughout treatment was used to infect naïve PBMCs (TCID50=100) for two weeks with no further treatment, which allowed for the observation of a rebound in viral activity.
PBMCs infected with 8 primary isolates (listed in Table 3) were incubated in the presence of free NB-DNJ (concentrations ranging 0-1 mM) or liposome-encapsulated NB-DNJ (0-3.75 μM, final lipid concentration of 50 μM).

[1] = tested on: HIV envelope protein gp120; assay: 2G12 and b12 binding to gp120 expressed in CHO cells, capture ELISA; format: cell-based
Description: In the following example, the activity of NB-DNJ as measured by the inhibition of glycan processing on the HIV envelope protein, gp120, is determined following expression in CHO cells in the presence of free or DCPP liposome-encapsulated NB-DNJ.
CHO cells expressing a soluble form of HIV gp120 were incubated in the presence of free NB-DNJ with concentrations ranging between 0-5 mM, or with liposomes encapsulating NB-DNJ with final concentrations in the medium ranging between 0 and 750 nM. Cells were left to incubate for 5 days before cellular supernatant containing the treated gp120 was collected. To measure the inhibition of glycan processing on gp120 expressed in the presence of NB-DNJ (either free or in liposomes), the binding of the MAb 2G12 was determined by capture ELISA. 2G12 recognizes a cluster of mannose residues on the carbohydrate-rich surface of gp120, and loss of binding in the presence of NB-DNJ results from the retention of glucose on the oligomannose glycans that form the epitope. A loss of binding affinity, however, may also arise from a misfolding of the protein, and to distinguish between these two possibilities, the affinity of all samples for the neutralizing MAb, b12, is also measured. […] Soluble gp120 located in the cellular supernatant was captured in ELISA plates using the D7324 antibody (binds the C5 region of gp120) and treated with 10 μg/ml of either 2G12 or b12. The binding of both antibodies to NB-DNJ-treated samples was related to that for the untreated gp120, where data are expressed as percent binding and represent the mean±S.D. of triplicates from four separate experiments.

CHO cells = assay: Liposome uptake (Rh-PE) and intracellular calcein dequenching; format: cell-based, Chinese hamster
Description: The effects of different DNJ compounds on the cellular uptake and intracellular release, when encapsulated inside DCPP liposomes, was determined by diluting compounds in 80-mM calcein and incorporating Rh-PE in liposome membranes as previously described, with the final liposome composition being DOPE:CHEMS:PEG-PE:Rh-PE (DCPP-Rh, 6:4:0.3:0.1) Liposomes encapsulating calcein alone, 10-μM DNJ, 1-mM DNJ, 10-μM NB-DNJ, 1-mM NB-DNJ, 10-μM NN-DNJ, or 1-mM NN-DNJ, were incubated with CHO cells for 45 min before liposomes were removed and cells were washed twice in 1×PBS. Cells were then analyzed in a fluorometer to measure calcein dequenching (λex=490 and λem=520 nm) and rhodamine fluorescence (λex=584 and λem=612 nm). Data represent the mean±S.D. obtained from triplicates of four independent experiments, where mean rhodamine fluorescence values reflect the binding and uptake of liposomes and the mean calcein fluorescence reflects the intracellular dequenching of the dye (i.e. dye released from liposomes into intracellular compartments). Results are expressed as the percent fluorescence measured following incubation with DNJ-containing liposomes as compared to the calcein/PBS-only liposome control (=100% on the x axis).
The calculated ratio of calcein to rhodamine fluorescence is taken as a measure of the amount of aqueous marker released per cell-associated liposome, and represents the efficiency of intracellular delivery.

[2] = Human immunodeficiency virus 1, PBMC, free, three rounds of treatment, six isolates
[3] = 7.5 nM, liposome-mediated delivery

Structure (SMILES): CCCCN1C[C@H](O)[C@@H](O)[C@H](O)[C@H]1CO [NB-DNJ, N-butyl-1,5-dideoxy-1,5-imino-D-glucitol]
- reduction in viral secretion (HIV-1 primary isolates; 1 mM free in medium, first week, most isolates): 30-40%
- enhancement of antiviral activity, liposome vs free (HIV-1 primary isolates; DOPE:CHEMS:PEG-PE liposomes): 10^4-10^5 fold
- IC50 (HIV-1 primary isolates; [2]): 400 µM
- IC90 (HIV-1 primary isolates; [2]): 500 µM
- final NB-DNJ concentration with antiviral activity similar to 500 μM free (HIV-1 primary isolates; encapsulated in DOPE:CHEMS:PEG-PE liposomes, all isolates): 3.75 to 37.5 nM
- reduction in viral activity (HIV-1 primary isolates; free, all isolates): ≥ 90%
- antiviral concentration (lowest to clear viral activity in all isolates) (HIV-1 primary isolates; free, four weeks treatment): 500 µM
- gp120 binding to 2G12 [1, 3]: 9.8±4.8%
- gp120 binding to b12 [1, 3]: 96.3±3.2%
- gp120 binding to 2G12 ([1]; 0.5-mM free in the medium): 1.2±0.1%
- gp120 binding to b12 ([1]; 0.5-mM free in the medium): 100%
- Efficiency (calcein/rhodamine, AU) (CHO cells; 10 μM encapsulated in DCPP liposomes): 21.7 ± 1.5 AU
- increase of efficiency of intracellular delivery (CHO cells; 10 μM in DCPP liposomes): approximately 2 fold
- Efficiency (calcein/rhodamine, AU) (CHO cells; 1 mM encapsulated in DCPP liposomes): 28.4 ± 2.4 AU
- increase of efficiency of intracellular delivery (CHO cells; 1 mM in DCPP liposomes): ~3 fold
- increase in dequenched calcein (CHO cells; 1-mM formulation in DCPP-Rh liposomes): ~2.3 fold
- increase in dequenched calcein (CHO cells; 10-μM formulation in DCPP-Rh liposomes): ~1.8 fold
